Source: patent publication US4738954A, “Novel N^6 -substituted-5'-oxidized adenosine analogs” (Warner-Lambert Company, priority 1985, dated 1988)

Assays:
[1] = tested on: locomotor activity; experiment: Activity and Screen Test done orally in rats: locomotor activity; type: in vivo
Description: Immediately following the screen test, the final phase of testing is initiated by placing each group of three mice in one actophotometer (Life Sciences, 22, 1067-1076, 1978). The actophotometer consists of a cylindrical chamber whose center is occupied by another cylinder which contains the illumination for six photocells located on the perimeter of the chamber. Six light-beam interruptions equal one count. Locomotor activity is recorded by computer at ten minute intervals for 60 minutes.
(§1) The data obtained from the screen test are expressed as percent of mice falling off the screen. Data derived from locomotor activity of drug treated mice are compared to the activity of vehicle treated animals and are expressed as percent inhibition of spontaneous locomotion. All percentages reported for inhibition of locomotion (LI) are based upon data accumulated for one hour. Both phases of testing are graded: A=60-100%; C=31-59%; and N=0-30%. An overall dose rating is obtained by the following criteria:
(§2) *This was done orally in rats, rather than IP in mice.

[2] = target: T1, adenosine A1 receptor (Rattus norvegicus, UniProt P25099); experiment: Adenosine Receptor Binding--A1 Receptor Affinity (RBA1), [3H]-CHA displacement; details: 1.0 nM [3H]-CHA, rat brain, 25° C, 1 h; read-out: RBA-1 (IC50, A1 receptor affinity)
T1 construct: Whole brain minus cerebellum and brainstem from male Long Evans rats; from tissue; host or cells: rat whole brain minus cerebellum and brainstem, membranes
T1 sequence (P25099 1-326): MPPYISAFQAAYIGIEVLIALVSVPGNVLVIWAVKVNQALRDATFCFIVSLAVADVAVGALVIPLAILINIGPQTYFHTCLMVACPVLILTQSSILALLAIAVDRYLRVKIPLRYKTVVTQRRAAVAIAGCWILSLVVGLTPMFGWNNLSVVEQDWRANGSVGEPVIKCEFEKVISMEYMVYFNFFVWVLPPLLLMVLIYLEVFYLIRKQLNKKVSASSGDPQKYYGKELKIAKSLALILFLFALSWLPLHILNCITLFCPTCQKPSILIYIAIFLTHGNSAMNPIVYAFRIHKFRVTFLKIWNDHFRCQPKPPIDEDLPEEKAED
Description: Adenosine Receptor Binding--A1 Receptor Affinity (RBA1)
Whole brain minus cerebellum and brainstem from male Long Evans rats (105-200 g) was homogenized in 30 volumes of ice-cold 0.05M Tris-HCl buffer pH 7.7 using a Brinkman Polytron PT-10, (setting number 6 for 20 seconds) and centrifuged for ten minutes at 20,000×g (Sorvall RC-2), 4° C. The supernatant was discarded, and the pellet was resuspended and centrifuged as before. The pellet was resuspended in 20 ml Tris-HCl buffer containing two International Units/ml of adenosine deaminase (Sigma type III from calf intestinal mucosa), incubated at 37° C. for 30 minutes, then subsequently at 0° C. for ten minutes. The homogenate was again centrifuged, and the final pellet was resuspended in ice-cold 0.05M Tris-HCl buffer pH 7.7 to a concentration of 20 mg/ml original wet tissue weight and used immediately.
Tissue homogenate (10 mg/ml) was incubated in 0.05M Tris-HCl buffer pH 7.7 containing 1.0 nM ((^3 H))-N^6 -cyclohexyladenosine ([^3 H]-CHA) with or without test agents in triplicate for one hour at 25° C. Incubation volume was 2 ml. Unbound [^3 H]-CHA was separated by rapid filtration under reduced pressure through Whatman glass fiber (GF/B) filters. The filters were rinsed three times with 5 ml of ice cold 0.05M Tris-HCl buffer pH 7.7. The radio-labeled ligand retained on the filter was measured by liquid scintillation spectrophotometry after shaking the filters for one hour or longer on a mechanical shaker in 10 ml of Beckman Ready-Solv HP scintillation cocktail.
Nonspecific binding was defined as the binding which occured in the presence of 1 mM theophylline. The concentration of test agent which inhibited 50% of the specific binding (IC50) was determined by nonlinear computer curve fit. The Scatchard plot was calculated by linear regression of the line obtained by plotting the amount of radioligand bound (pmoles/gram of tissue) versus [formula] Since the amount of radioligand bound was a small fraction of the total amount added, free radioligand was defined as the concentration of (nM) of radioligand added to the incubation mixture. The Hill coefficient was calculated by linear regression of the line obtained by plotting the log of the bound radioligand vs the log of the [formula] The maximal number of binding sites (Bmax) was calculated from the Scatchard plot.

[3] = tested on: animals falling off the inverted screen; experiment: Activity and Screen Test done orally in rats: screen test; type: in vivo
Description: A two part testing procedure is started one hour postinjection. First, the screen test (ST) is performed (see Pharmac. Biochem. Behav. 6, 351-353, 1977). Briefly this test consists of placing mice on individual wire screens which are then rotated 180 degrees at the start of a 60 second observation period. The number of mice falling off the inverted screen is recorded.
as §1, §2

[4] = target: T2, adenosine A2 receptor (Rattus norvegicus, UniProt P30543); experiment: Adenosine Receptor Binding--A2 Receptor Affinity (RBA2), [3H]NECA displacement; type: rat (Sprague-Dawley striatal membranes); details: 4 nM [3H]NECA + 50 nM N6-cyclopentyladenosine, rat striatum, 25° C, 60 min; read-out: RBA-2 (IC50, A2 receptor affinity)
T2 construct: Brains were thawed and then kept on ice while the striata were dissected out; tissue Pel-Freez (Rogers, Arkansas) (rat brains); host or cells: rat striatum, membranes
T2 sequence (P30543 whole entry): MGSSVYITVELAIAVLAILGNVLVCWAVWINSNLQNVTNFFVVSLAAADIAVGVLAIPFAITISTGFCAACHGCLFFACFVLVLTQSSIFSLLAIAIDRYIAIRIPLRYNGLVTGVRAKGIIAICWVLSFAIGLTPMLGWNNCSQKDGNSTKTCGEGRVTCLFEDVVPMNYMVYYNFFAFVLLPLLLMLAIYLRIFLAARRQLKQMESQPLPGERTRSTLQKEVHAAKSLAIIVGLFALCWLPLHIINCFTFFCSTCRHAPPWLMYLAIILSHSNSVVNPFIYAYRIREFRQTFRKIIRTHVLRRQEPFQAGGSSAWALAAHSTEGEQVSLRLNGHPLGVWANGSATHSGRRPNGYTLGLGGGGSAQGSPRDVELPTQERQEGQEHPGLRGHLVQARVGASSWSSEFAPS
Description: Adenosine Receptor Binding--A2 Receptor Affinity (RBA2)
Brains from 200-500 g mixed sex Sprague-Dawley rats were purchased from Pel-Freez (Rogers, Arkansas). Fresh brains from male Long-Evans hooded rats (Blue Spruce Farms, Altamont, NY) gave essentially identical results. Brains were thawed and then kept on ice while the striata were dissected out. Striata were disrupted in 10 vol of ice-cold 50 mM Tris.HCl (pH 7.7 at 25° C., pH 8.26 at 5° C.) (Tris) for 30 seconds in a Polytron PT-10 (Brinkmann) at setting 5. The suspension was centrifuged at 50,000×g for ten minutes, the supernatant discarded, the pellet resuspended in 10 vol ice-cold Tris as above, recentrifuged, resuspended at 1 g/5 ml, and stored in plastic vials at -70° C. (stable for at least six months). When needed, tissue was thawed at room temperature, disrupted in a Polytron, and kept on ice until used.
All incubations were for 60 minutes at 25° C. in 12×75 mm glass tubes containing 1 ml Tris with 5 mg original tissue weight of rat weight of rat striatal membranes, 4 nM [^3 H]-N-ethyl adenosine-5'-carboxamide ([^3 H]NECA), 50 nM N^6 -cyclopentyladenosine (to eliminate A1 receptor binding), 10 mM MgCl2, 0.1 units/ml of adenosine deaminase and 1% dimethylsulfoxide. N^6 -Cyclopentyladenosine was dissolved at 10 mM in 0.02N HCl and diluted in Tris. Stock solutions and dilutions of N^6 -cyclopentyladenosine could be stored at -20° C. for several months. Test compounds were dissolved at 10 mM in dimethylsulfoxide on the same day as the experiment, and diluted in dimethylsulfoxide to 100× the final incubation concentration. Control incubations received an equal volume (10 μl) of dimethylsulfoxide; the resulting concentration of dimethylsulfoxide had no effect on binding. [^3 H]NECA was diluted to 40 nM in Tris. The membrane suspension (5 mg/0.79 ml) contained sufficient MgCl2 and adenosine deaminase to give 10 mM and 0.1 units/ml, respectively, final concentration in the incubation. […] After all additions, the rack of tubes was vortexed, and the tubes were then incubated for 60 min at 25° C. in a shaking water bath. The rack of tubes was vortexed an additional time halfway through the incubation.
Incubations were terminated by filtration through 2.4 cm GF/B filters under reduced pressure. Each tube was filtered as follows: the contents of the tube were poured on the filter, 4 ml of ice-cold Tris were added to the tube and the contents poured onto the filter, and the filter was washed twice with 4 ml of ice-cold Tris. The filtration was complete in about twelve seconds. Filters were put in scintillation vials, 8 ml of Formula 947 scintillation fluid added, and the vials left overnight, shaken, and counted in a liquid scintillation counter at 40% efficiency.
Nonspecific binding was defined as binding in the presence of 100 μM N^6 -cyclopentyladenosine, and specific binding was defined as total binding minus nonspecific binding. The IC50 was calculated by weighted nonlinear least squares curve-fitting to the mass-action equation. [formula] where Y is cpm bound
T is cpm total binding without drug
S is cpm specific binding without drug
D is the concentration of drug and
K is the IC50 of the drug
Weighting factors were calculated under the assumption that the standard deviation was proportional to the predicted value of Y. Nonspecific binding was treated as a very large (infinite) concentration of drug in the computer analysis.

| IC50 [2] [nM] | Screen test failure ([3]; 0.1 mg/kg orally) [%] | Screen test failure ([3]; 0.3 mg/kg orally) [%] | Screen test failure ([3]; 1 mg/kg orally) [%] | Screen test failure ([3]; 3 mg/kg orally) [%] | Screen test failure ([3]; 10 mg/kg orally) [%] | IC50 [4] [nM] | Structure (SMILES) | Inhibition of locomotor activity ([1]; 0.1 mg/kg orally) [%] | Inhibition of locomotor activity ([1]; 0.3 mg/kg orally) [%] | Inhibition of locomotor activity ([1]; 1 mg/kg orally) [%] | Inhibition of locomotor activity ([1]; 3 mg/kg orally) [%] | Inhibition of locomotor activity ([1]; 10 mg/kg orally) [%] |
| --- | --- | --- | --- | --- | --- | --- | --- | --- | --- | --- | --- | --- |
| 0.9 | 22 | 6 | 17 | 22 | 72 | 198 | CCNC(=O)[C@H]1O[C@@H](n2cnc3c(NC4CCCC4)ncnc32)[C@H](O)[C@@H]1O [Example 4, N6-cyclopentyladenosine-5'-ethylcarboxamide] | 33 | 36 | 81 | 84 | 84 |
| 29 |  |  |  |  |  | 161 | CCNC(=O)[C@H]1O[C@@H](n2cnc3c(N[C@@H]4CCc5ccccc54)ncnc32)[C@H](O)[C@@H]1O [Example 2, (R)-N-6-(1-indanyl) adenosine-5'-ethylcarboxamide] |  |  |  |  |  |
| 16 |  |  |  |  |  | 2680 | CCOC(=O)[C@H]1O[C@@H](n2cnc3c(N[C@H](C)Cc4ccccc4)ncnc32)[C@H](O)[C@@H]1O [Example 7, (R)-N-6-[(2-Phenyl-1-methyl)ethyl]-adenosine-5'-ethylcarboxylate] |  |  |  |  |  |
|  | 33 | 11 | 44 |  |  |  | CCNC(=O)[C@H]1O[C@@H](n2cnc3c(NC4CC5CCC4C5)ncnc32)[C@H](O)[C@@H]1O (relative stereo) [Example 9, N-6-Norbornyladenosine-5'ethylcarboxamide] | 37 | 69 | 89 |  |  |
